Test system: 843782-103-R-J1-PDC complex spheroid viability
Assay: Anticancer human tumor 843782-103-R-J1-PDC patient-derived lung adenocarcinoma cell line growth inhibition [RAS]
Conditions: for IC50: curve of first compound; for viability, T/C: stronger effect = lower value
In short: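 Agents were tested in combination matrices in half-log decrements from a top concentration at or near clinical Cmax (10 microM if undetermined). Targets were multi-cell spheroids of tumour lines plus HUVEC and MSC stromal cells.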
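Note: viability read after seven days of compound exposure.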

## CCc1c2c(nc3ccc(O)cc13)-c1cc3c(c(=O)n1C2)COC(=O)[C@]3(O)CC + C#Cc1c(F)ccc2cc(O)cc(-c3ncc4c(N5CC6CCC(C5)N6)nc(OCC56CCCN5CC(F)C6)nc4c3F)c12
Second compound 0.0316 µM
  IC50: 1.91 nM
Second compound 0.1 µM
  IC50: 2 nM
Second compound 0.316 µM
  IC50: 1.95 nM
Second compound 1 µM
  IC50: 1.91 nM
Second compound 3.16 µM
  IC50: 1.62 nM
Second compound 10 µM
  IC50: < 0.949 nM
Second compound 0.0316 µM, first compound 0.000949 µM
  viability, T/C: 103%
Second compound 0.0316 µM, first compound 0.003 µM
  viability, T/C: 15.3%
Second compound 0.0316 µM, first compound 0.00949 µM
  viability, T/C: 8.79%
Second compound 0.0316 µM, first compound 0.03 µM
  viability, T/C: 2.87%
Second compound 0.0316 µM, first compound 0.0949 µM
  viability, T/C: 1.58%
Second compound 0.0316 µM, first compound 0.3 µM
  viability, T/C: 0.53%
Second compound 0.1 µM, first compound 0.000949 µM
  viability, T/C: 104%
Second compound 0.1 µM, first compound 0.003 µM
  viability, T/C: 19.6%
Second compound 0.1 µM, first compound 0.00949 µM
  viability, T/C: 8.39%
Second compound 0.1 µM, first compound 0.03 µM
  viability, T/C: 4.21%
Second compound 0.1 µM, first compound 0.0949 µM
  viability, T/C: 1.08%
Second compound 0.1 µM, first compound 0.3 µM
  viability, T/C: 0.68%
Second compound 0.316 µM, first compound 0.000949 µM
  viability, T/C: 96.8%
Second compound 0.316 µM, first compound 0.003 µM
  viability, T/C: 20.8%
Second compound 0.316 µM, first compound 0.00949 µM
  viability, T/C: 8.99%
Second compound 0.316 µM, first compound 0.03 µM
  viability, T/C: 3.62%
Second compound 0.316 µM, first compound 0.0949 µM
  viability, T/C: 1.15%
Second compound 0.316 µM, first compound 0.3 µM
  viability, T/C: 0.74%
Second compound 1 µM, first compound 0.000949 µM
  viability, T/C: 85.5%
Second compound 1 µM, first compound 0.003 µM
  viability, T/C: 26.8%
Second compound 1 µM, first compound 0.00949 µM
  viability, T/C: 7.99%
Second compound 1 µM, first compound 0.03 µM
  viability, T/C: 3.68%
Second compound 1 µM, first compound 0.0949 µM
  viability, T/C: 1.44%
Second compound 1 µM, first compound 0.3 µM
  viability, T/C: 0.87%
Second compound 3.16 µM, first compound 0.000949 µM
  viability, T/C: 73.4%
Second compound 3.16 µM, first compound 0.003 µM
  viability, T/C: 21.8%
Second compound 3.16 µM, first compound 0.00949 µM
  viability, T/C: 10.4%
Second compound 3.16 µM, first compound 0.03 µM
  viability, T/C: 4.24%
Second compound 3.16 µM, first compound 0.0949 µM
  viability, T/C: 1.56%
Second compound 3.16 µM, first compound 0.3 µM
  viability, T/C: 0.77%
Second compound 10 µM, first compound 0.000949 µM
  viability, T/C: 42.2%
Second compound 10 µM, first compound 0.003 µM
  viability, T/C: 12.1%
Second compound 10 µM, first compound 0.00949 µM
  viability, T/C: 9.81%
Second compound 10 µM, first compound 0.03 µM
  viability, T/C: 3.11%
Second compound 10 µM, first compound 0.0949 µM
  viability, T/C: 1.08%
Second compound 10 µM, first compound 0.3 µM
  viability, T/C: 0.39%
